# Data taken from patent publication US4853470A, “3-(piperidinyl)- and 3-(pyrrolidinyl)-1H-indazoles” (Hoechst-Roussel Pharmaceuticals, Inc., priority 1988, dated 1989).
# Where “and” joins values, the source holds several entries; their conditions need not be identical. Equal entries are not always repeated. Where two headings read alike, the source gives them in different places.
# Key:
# [1] = test system: supramaximal electroshock (extensor tonus); experiment: supramaximal electroshock (SES) assay, anticonvulsant activity; type: in vivo, male mouse; conditions: for ED50 SES: i.p.; for ED50 SES / ED50: 206 volts rms for 300 msec; for SES, % protection (normalized percent inhibition) at indicated dose: @ 60 mg/kg i.p.; for ED50: Mus musculus, ip
# Procedure: The compounds of the invention are also useful as anticonvulsants due to their anticonvulsant activity in mammals. Anticonvulsant activity is measured in the male mouse using the supramaximal electroshock (SES) assay described in Arch. Int. Pharmacodyn. 92: 97-107, 1952. In this procedure groups of animals are used. Drugs are prepared using distilled water and, if insoluble, a surfactant is added. Control animals receive vehicle. Drugs are routinely administered intraperitoneally (i.p.). The dosage volume is 10 ml/kg. A primary screen is given a 30 minute pretreat. The animal's eyes are placed across the output terminals of an A.C. shocker that delivers 206 volts rms for 300 msec. Electrode paste coats the animals eyes at the point of contact with the terminals. […] Protection is expressed as normalized percent inhibition relative to vehicle control.
# A time response is carried out using six animals/group. Animals are tested at 30, 60 and 120 minutes postdrug. Additional time periods are tested if indicated by previous tests. When the peak activity time has been determined, a dose response is initiated using 10 animals/group at that time period. The ED50 and 95% confidence interval are calculated by computer probit analysis.
# [2] = test system: metrazol lethality (pentylenetetrazol); experiment: metrazol lethality (MTZ), anticonvulsant activity; type: in vivo, male mice; conditions: for ED50: Mus musculus, ip; for MTZ, % protected at indicated dose: @ 60 mg/kg i.p.
# Procedure: Anticonvulsant activity is also measured using the metrazol lethality (MTZ). In this procedure groups of male mice are utilized. Test drugs are prepared using distilled water and, if insoluble, a suitable surfactant is added. The route of administration is i.p., but all administration are in volumes proportional to 10 cc/kg.
# For a time response, 25 animals (5/group) are administered drug i.p. at 15, 30, 60 and 90 minutes prior to Metrazol treatment. Control animals (2/group) receive vehicle. Metrazol (pentylenetetrazol) is prepared at a concentration of 225 mg/10 ml in distilled water. Metrazol is administered s.c. at 225 mg/kg in distilled water. Those animals alive 15 minutes after Metrazol injection are considered protected. The time period with the greatest percent protected is said to be that of peak drug activity.
# A dose range is run in the same manner as a time response except that 50 animals (10/group) are tested at the peak time of drug activity. One group receives vehicle. An ED50 is calculated by means of linear regression.
# [3] = test system: tetrabenazine induced ptosis; experiment: tetrabenazine induced ptosis assay (antidepressant activity); type: in vivo, mice; conditions: Mus musculus, ip; estimated 50% inhibition; read-out: ED50, inhibition of ptosis
# Source text: The 3-(piperidinyl)- and 3-(pyrrolidinyl)-1H-indazoles of the present invention are also useful as antidepressants by virtue of their ability to elicit an antidepressant response in mammals. […] Thus, for example,. the intraperitoneal (i.p.) dose effecting an estimated 50% inhibition of ptosis (ED50) in mice produced in this assay is as follows: […]
# apomorphine climbing = apomorphine climbing mice assay (antipsychotic activity); type: in vivo, mice (CK-1 male); conditions: for ED50: Mus musculus, ip, read-out: ED50, antipsychotic activity (climbing); for % decrease in climbing score at indicated dose: @ 10 mg/kg, i.p.
# Procedure: Antipsychotic activity is determined in the climbing mice assay by methods similar to those described by P. Protais, et al., Psychopharmacol., 50, 1 (1976) and B. Costall, Eur. J. Pharmacol., 50, 39 (1978).
# The subject CK-1 male mice (23-27 grams) are group-housed under standard laboratory conditions. The mice are individually placed in wire mesh stick cages (4"×4" by 10") and are allowed one hour for adaptation and exploration of the new environment. Then apomorphine is injected subcutaneously at 1.5 mg/kg, a dose causing climbing in all subjects for 30 minutes. Compounds to be tested for antipsychotic activity are injected intraperitoneally (i.p.) 30 minutes prior to the apomorphine challenge at a screening dose of 10 mg/kg.
# For evaluation of climbing, 3 readings are taken at 10, 20, and 30 minutes after apomorphine administration according to the following scale:
# 4 paws on bottom (no climbing)
# 2 paws on the wall (rearing)
# 4 paws on the wall (full climb)
# Mice consistently climbing before the injection of apomorphine will be discarded.
# With full-developed apomorphine climbing, the animals are hanging onto the cage walls, rather motionless, over longer periods of time. By contrast, climbs due to mere motor stimulation usually only last a few seconds.
# The climbing scores are individually totaled (maximal score: 6 per mouse over 3 readings) and the total score of the control group (vehicle intraperitoneally-apomorphine subcutaneously) is set to 100%. ED50 values with 95% confidence limits, calculated by a Linear Regression Analysis of some of the instant 3-(piperidinyl)-1H-indazoles and 3-(pyrrolidinyl)-1H-indazoles as well as standard antipsychotics, are presented in Table 1.
# [4] = test system: phenyl-p-quinone writhing; experiment: phenyl-p-quinone writhing assay (analgesia); type: in vivo, mice; conditions: for ED50: Mus musculus, sc, read-out: ED50, inhibition of writhing; for inhibition of writhing at indicated dose: @ 20 mg/kg, s.c.
# [5] = 30 minutes prior to apomorphine 1.5 mg/kg s.c.
compound,measurement,setting,value
1-(2-Phenylethyl)-3-(1-methyl-4-piperidinyl)-1H-indazole hydrobromide [Example 14],ED50 SES,[1],34.9 mg/kg
1-(4-Nitrophenyl)-3-(1-methyl-4-piperidinyl)-1H-indazole hydrochloride [Example 7],"SES, % protection (normalized percent inhibition) at indicated dose",[1],0%
"1-(6-Fluoro-1,2-benzisoxazole-3-propyl)-3-(1-methyl-4-piperidinyl)-1H-indazole maleate [Example 11]",ED50 MTZ,"[2]; i.p., Metrazol 225 mg/kg s.c.",79.6 mg/kg
1-Hydroxymethyl-3-(1-methyl-4-piperidinyl)-1H-indazole [Example 10],ED50 SES,[1],35.3 mg/kg
CN1CCC(c2nn(-c3ccccc3N)c3ccccc23)CC1.O=C(O)/C=C/C(=O)O [1-(2-Aminophenyl)-3-(1-methyl-4-piperidinyl)-1H-indazole fumarate],ED50,[3],19.2 mg/kg
CN1CCC(c2nn(-c3ccccc3Cl)c3ccccc23)CC1.O=C(O)/C=C/C(=O)O [1-(2-Chlorophenyl)-3-(1-methyl-4-piperidinyl)-1H-indazole fumarate],ED50,[3],5.3 mg/kg
Clc1ccccc1-n1nc(C2CCNCC2)c2ccccc21.O=C(O)/C=C/C(=O)O [1-(2-Chlorophenyl)-3-(4-piperidinyl)-1H-indazole fumarate],ED50,[3],5.9 mg/kg
CC(=O)n1nc(C2CCN(C)CC2)c2ccccc21.Cl [1-Acetyl-3-(1-methyl-4-piperidinyl)-1H-indazole hydrochloride],ED50,apomorphine climbing,5.4 mg/kg
same,ED50,[4],0.71 mg/kg
CN1CCC(c2nn(C(=O)c3ccccc3)c3ccccc23)CC1.Cl [1-Benzoyl-3-(1-methyl-4-piperidinyl)-1H-indazole hydrochloride],ED50,apomorphine climbing; [5],6.5 mg/kg
same,ED50,[4]; approximately 50% inhibition,0.85 mg/kg
CN1CCC(c2nn(C(=O)c3ccccc3)c3cc(F)ccc23)CC1.O=C(O)/C=C/C(=O)O [1-Benzoyl-6-fluoro-3-(1-methyl-4-piperidinyl)-1H-indazole fumarate],ED50,apomorphine climbing; [5],1.8 mg/kg
same,ED50,[4]; approximately 50% inhibition,0.17 mg/kg
Br.CN1CCC(c2nn(CC3CC3)c3ccccc23)CC1 [1-Cyclopropylmethyl-3-(1-methyl-4-piperidinyl)-1H-indazole hydrobromide],% decrease in climbing score at indicated dose,apomorphine climbing,36%
same,ED50,[4]; approximately 50% inhibition,1.1 mg/kg
Br.CCn1nc(C2CCN(C)CC2)c2ccccc21 [1-Ethyl-3-(1-methyl-4-piperidinyl)-1H-indazole hydrobromide],% decrease in climbing score at indicated dose,apomorphine climbing,41%
same,ED50,[4],0.65 mg/kg
Br.CN1CCC(c2nn(Cc3ccccc3)c3ccccc23)CC1 [1-Phenylmethyl-3-(1-methyl-4-piperidinyl)-1H-indazole hydrobromide],inhibition of writhing at indicated dose,[4]; hydrobromide,75% and 96%
CN(C)CCCn1nc(C2CCN(C)CC2)c2ccccc21.O=C(O)/C=C/C(=O)O.O=C(O)/C=C/C(=O)O [1-[3-(Dimethylamino)propyl]-3-(1-methyl-4-piperidinyl)-1H-indazole difumarate],inhibition of writhing at indicated dose,[4],15%
CN1CCC(c2nn(-c3ccc(C(F)(F)F)cc3)c3ccccc23)CC1.Cl [3-(1-Methyl-4-piperidinyl)-1-[4-(trifluoromethyl)phenyl]-1H-indazole hydrochloride],ED50,[4]; approximately 50% inhibition,9.8 mg/kg
CN1CCC(c2nn(C(=O)OCC(Cl)(Cl)Cl)c3ccccc23)CC1.Cl [3-(1-Methyl-4-piperidinyl)-1-trichloroethoxycarbonyl-1H-indazole hydrochloride],% decrease in climbing score at indicated dose,apomorphine climbing,46%
"CN1CCC(c2n[nH]c3ccccc23)CC1 [3-(1-methyl-4-piperidinyl)-1H--indazole, 3-(1-Methyl-4-piperidinyl)-1H-indazole]",ED50,apomorphine climbing,4.5 mg/kg
same,ED50,[4],0.26 mg/kg
"Fc1ccc(C(CCCN2CCC(c3n[nH]c4ccccc34)CC2)c2ccc(F)cc2)cc1 [3-[1-[4,4-bis(4-Fluorophenyl)butyl]-4-piperidinyl]-1H-indazole]",ED50,apomorphine climbing; [5],7.4 mg/kg
same,inhibition of writhing at indicated dose,[4],31%
CNC(=O)N1CCC(c2nn(-c3ccccc3F)c3ccccc23)CC1 [Compound 1],ED50,[2]; Metrazol 225 mg/kg s.c.,49 mg/kg
same,ED50,[1],37 mg/kg
"O=C(Nc1ccccc1)N1CCC(c2nn(-c3ccccc3)c3cc(F)ccc23)CC1 [Compound 2, N-Phenyl-4-(6-fluoro-1-phenyl-1H-indazol-3-yl)piperidine-1-carboxamide]","MTZ, % protected at indicated dose",[2],20%
same,"SES, % protection (normalized percent inhibition) at indicated dose",[1],0%
"Br.NC(=O)N1CCC(c2nn(-c3ccc(C(F)(F)F)cc3)c3ccccc23)CC1 [Compound 3, 4-[1-[4-(Trifluoromethyl)phenyl]-1H-indazol-3-yl]-1-piperidine carboxamide hydrobromide]",ED50,[2]; Metrazol 225 mg/kg s.c.,27.4 mg/kg
same,ED50,[1],10.9 mg/kg
"CNC(=O)N1CCC(c2nn(-c3ccccc3)c3cc(F)ccc23)CC1 [Compound 4, N-Methyl-4-(6-fluoro-1-phenyl-1H-indazol-3-yl)piperidine-1-carboxamide]","MTZ, % protected at indicated dose",[2],0%
same,ED50,[1],64.9 mg/kg
"Fc1ccc2c(C3CCN(C(=S)Nc4ccccc4)CC3)nn(-c3ccccc3)c2c1 [Compound 5, N-Phenyl-4-(6-fluoro-1-phenyl-1H-indazol-3-yl)piperidine-1-carbothioamide]","MTZ, % protected at indicated dose",[2],17%
same,"SES, % protection (normalized percent inhibition) at indicated dose",[1],0%
CNC(=O)N1CCC(c2nn(-c3ccc(C(F)(F)F)cc3)c3ccccc23)CC1 [Compound 6],"MTZ, % protected at indicated dose",[2],20%
same,ED50,[1],44.9 mg/kg
"CC(=O)N1CCC(c2nn(-c3ccccc3)c3cc(Br)ccc23)CC1 [Compound 8, 1-Acetyl-4-(6-bromo-1-phenyl-1H-indazol-3-yl)piperidine]","MTZ, % protected at indicated dose",[2],0%
same,"SES, % protection (normalized percent inhibition) at indicated dose",[1],33%
CNC(=O)N1CCC(c2nn(-c3ccc(F)cc3)c3ccccc23)CC1 [Compound 9],ED50,[2]; Metrazol 225 mg/kg s.c.,45.5 mg/kg
same,ED50,[1],31.7 mg/kg
O=CN1CCC(c2nn(-c3ccc(C(F)(F)F)cc3)c3ccccc23)CC1 [Compound 12],ED50,[2]; Metrazol 225 mg/kg s.c.,60.9 mg/kg
same,ED50,[1],27.2 mg/kg
O=CN1CCC(c2nn(-c3ccc(F)cc3)c3ccccc23)CC1 [Compound 13],"MTZ, % protected at indicated dose",[2],40%
same,ED50,[1],24.7 mg/kg
"NC(=O)N1CCC(c2nn(-c3ccccc3)c3cc(Cl)ccc23)CC1 [Compound 15, 4-(6-Chloro-1-phenyl-1H-indazol-3-yl)piperidine-1-carboxamide]",ED50,[2]; Metrazol 225 mg/kg s.c.,31.2 mg/kg
same,ED50,[1],48.1 mg/kg
CN(C)C(=O)N1CCC(c2nn(-c3ccc(C(F)(F)F)cc3)c3ccccc23)CC1 [Compound 16],"MTZ, % protected at indicated dose",[2],20%
same,"SES, % protection (normalized percent inhibition) at indicated dose",[1],20%
"O=C(CCCN1CCC(O)(c2ccc(Cl)cc2)CC1)c1ccc(F)cc1 [haloperidol, reference compound]",ED50,apomorphine climbing,0.11 mg/kg
"CC(C)=CCN1CCC2(C)c3cc(O)ccc3CC1C2C (stereo not shown) [pentazocine, reference compound]",ED50,[4],1.3 mg/kg
"CCC(=O)O[C@](Cc1ccccc1)(c1ccccc1)[C@H](C)CN(C)C [propoxyphene, reference compound]",ED50,[4],3.9 mg/kg
